Reference: patent US20030212107A1, “R-reliprodil for treating glaucoma” (priority 2002, published 2003)
“Also recorded” adds a separate entry of the source.

Assays:
hippocampal slices = experiment: Recovery of synaptic transmission after hypoxia in hippocampal slices in vitro; details: for Recovery of excitatory post synaptic potentials following hypoxia (efficacy): comparable dose, 15 minute hypoxia, recovery assessed 60 minutes after reoxygenation
Procedure: Dose-Response Relations Comparing the Efficacy of Racemic (R/S)-Eliprodil (Open Circles), R-Eliprodil (Closed Circles) and Memantine (Closed Diamonds) for their Ability to Improve Recovery of Synaptic Transmission Following a 15 Minute Period of Hypoxia in Hippocampal Slices in vitro (FIG. 2). […] Briefly, hippocampal slices were prepared acutely the same day as the experiment, and each compound was bath applied 30 minutes prior to delivery of the 15 minute hypoxic insult. Recovery of evoked […] expressed as percent of the initial, pre-hypoxia epsp maximum slope, with this percent recovery assessed 60 minutes after reoxygenation.

histamine H1 = histamine H1 (Homo sapiens, UniProt P35367); experiment: Binding studies; details: histamine H1 binding site
histamine H1, sequence (P35367 whole entry): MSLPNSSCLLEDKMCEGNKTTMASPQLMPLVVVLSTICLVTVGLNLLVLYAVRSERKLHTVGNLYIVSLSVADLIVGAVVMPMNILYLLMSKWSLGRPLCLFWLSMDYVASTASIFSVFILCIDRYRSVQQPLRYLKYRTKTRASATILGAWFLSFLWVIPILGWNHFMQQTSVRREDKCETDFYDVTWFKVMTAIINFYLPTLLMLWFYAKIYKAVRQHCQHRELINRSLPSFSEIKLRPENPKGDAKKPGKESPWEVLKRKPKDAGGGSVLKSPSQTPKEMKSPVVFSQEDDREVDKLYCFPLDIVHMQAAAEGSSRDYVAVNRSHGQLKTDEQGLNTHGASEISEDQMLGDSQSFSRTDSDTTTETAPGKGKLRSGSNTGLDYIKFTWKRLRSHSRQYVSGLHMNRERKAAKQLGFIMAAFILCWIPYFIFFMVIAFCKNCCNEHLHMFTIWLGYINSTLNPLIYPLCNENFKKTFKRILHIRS
Text: (§1) The role of these pharmacological activities in the neuroprotective efficacy has not been established for this drug.

β3-adrenergic = β3-adrenergic (Homo sapiens, UniProt P13945); experiment: Binding studies; details: β3-adrenergic binding site
β3-adrenergic, sequence (P13945 whole entry): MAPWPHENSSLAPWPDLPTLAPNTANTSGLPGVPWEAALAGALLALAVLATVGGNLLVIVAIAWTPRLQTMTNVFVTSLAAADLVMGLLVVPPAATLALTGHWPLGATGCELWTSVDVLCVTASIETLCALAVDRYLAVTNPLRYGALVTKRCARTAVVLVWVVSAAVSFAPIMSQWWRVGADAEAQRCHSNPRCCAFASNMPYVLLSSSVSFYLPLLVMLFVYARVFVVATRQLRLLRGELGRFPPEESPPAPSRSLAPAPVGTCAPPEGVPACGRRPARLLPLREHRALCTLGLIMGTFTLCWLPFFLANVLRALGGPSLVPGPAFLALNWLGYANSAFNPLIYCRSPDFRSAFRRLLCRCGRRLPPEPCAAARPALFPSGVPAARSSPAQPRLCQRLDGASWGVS
Text: as §1

5-HT7 = 5-HT7 (Homo sapiens, UniProt P34969); experiment: Binding studies; details: 5-HT7 binding site
5-HT7, sequence (P34969 whole entry, species assumed): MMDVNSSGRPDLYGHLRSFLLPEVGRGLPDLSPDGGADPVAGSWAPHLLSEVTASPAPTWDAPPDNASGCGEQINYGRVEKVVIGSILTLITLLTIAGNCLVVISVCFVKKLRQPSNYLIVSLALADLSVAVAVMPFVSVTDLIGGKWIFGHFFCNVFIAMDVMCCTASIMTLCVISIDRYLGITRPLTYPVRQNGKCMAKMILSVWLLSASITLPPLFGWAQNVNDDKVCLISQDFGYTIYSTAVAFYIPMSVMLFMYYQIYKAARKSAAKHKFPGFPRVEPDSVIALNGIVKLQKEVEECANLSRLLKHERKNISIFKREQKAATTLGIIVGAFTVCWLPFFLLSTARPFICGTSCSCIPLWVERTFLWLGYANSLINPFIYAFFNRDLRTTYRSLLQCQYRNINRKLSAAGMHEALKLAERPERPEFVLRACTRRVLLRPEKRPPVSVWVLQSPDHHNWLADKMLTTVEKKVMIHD
Text: as §1

5-HT2A = 5-HT2A (Homo sapiens, UniProt P28223); experiment: Binding studies; details: 5-HT2A binding site
5-HT2A, sequence (P28223 whole entry, species assumed): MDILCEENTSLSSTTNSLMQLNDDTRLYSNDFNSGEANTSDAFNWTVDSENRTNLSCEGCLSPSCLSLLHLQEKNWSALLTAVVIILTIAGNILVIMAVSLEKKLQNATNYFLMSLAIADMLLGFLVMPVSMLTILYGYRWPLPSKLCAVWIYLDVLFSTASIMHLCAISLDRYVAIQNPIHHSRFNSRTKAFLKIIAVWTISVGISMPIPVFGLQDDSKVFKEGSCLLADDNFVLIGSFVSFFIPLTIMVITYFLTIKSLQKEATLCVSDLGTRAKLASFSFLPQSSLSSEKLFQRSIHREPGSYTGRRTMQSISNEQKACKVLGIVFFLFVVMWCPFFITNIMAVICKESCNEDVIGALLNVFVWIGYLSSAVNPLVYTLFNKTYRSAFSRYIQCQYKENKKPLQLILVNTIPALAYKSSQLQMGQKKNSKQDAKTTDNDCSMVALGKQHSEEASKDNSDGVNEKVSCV
Text: as §1

α1-adrenergic = experiment: Binding studies; details: α1-adrenergic binding site
Text: as §1

histamine H2 = histamine H2 (Homo sapiens, UniProt P25021); experiment: Binding studies; details: histamine H2 binding site
histamine H2, sequence (P25021 whole entry): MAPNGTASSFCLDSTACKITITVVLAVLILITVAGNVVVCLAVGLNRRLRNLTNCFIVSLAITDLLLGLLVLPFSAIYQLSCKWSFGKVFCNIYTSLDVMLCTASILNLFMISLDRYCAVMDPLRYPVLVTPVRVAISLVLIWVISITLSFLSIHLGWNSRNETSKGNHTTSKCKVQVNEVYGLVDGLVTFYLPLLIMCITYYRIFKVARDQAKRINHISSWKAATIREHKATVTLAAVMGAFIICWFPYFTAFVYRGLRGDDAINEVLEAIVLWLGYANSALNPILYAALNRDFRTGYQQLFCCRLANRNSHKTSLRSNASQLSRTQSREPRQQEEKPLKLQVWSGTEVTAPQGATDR
Text: as §1

5-HT1A = target: T1, 5-HT1A (Homo sapiens, UniProt P08908); experiment: Binding studies; details: 5-HT1A binding site
T1 sequence (P08908 1-422): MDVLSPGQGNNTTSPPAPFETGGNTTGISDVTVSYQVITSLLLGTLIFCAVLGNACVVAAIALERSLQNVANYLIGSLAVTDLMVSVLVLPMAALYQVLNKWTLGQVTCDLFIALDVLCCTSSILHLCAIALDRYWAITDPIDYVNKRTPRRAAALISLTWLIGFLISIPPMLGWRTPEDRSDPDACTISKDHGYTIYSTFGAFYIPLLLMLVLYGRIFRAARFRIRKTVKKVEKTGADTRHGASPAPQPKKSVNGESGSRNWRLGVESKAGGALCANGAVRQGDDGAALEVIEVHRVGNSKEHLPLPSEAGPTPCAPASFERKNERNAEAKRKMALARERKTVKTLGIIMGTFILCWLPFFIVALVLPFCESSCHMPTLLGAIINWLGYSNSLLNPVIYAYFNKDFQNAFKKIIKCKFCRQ
Text: as §1

5-HT uptake = 5-HT uptake (Homo sapiens, UniProt P31645); experiment: Binding studies; details: 5-HT uptake binding site
5-HT uptake, sequence (P31645 whole entry): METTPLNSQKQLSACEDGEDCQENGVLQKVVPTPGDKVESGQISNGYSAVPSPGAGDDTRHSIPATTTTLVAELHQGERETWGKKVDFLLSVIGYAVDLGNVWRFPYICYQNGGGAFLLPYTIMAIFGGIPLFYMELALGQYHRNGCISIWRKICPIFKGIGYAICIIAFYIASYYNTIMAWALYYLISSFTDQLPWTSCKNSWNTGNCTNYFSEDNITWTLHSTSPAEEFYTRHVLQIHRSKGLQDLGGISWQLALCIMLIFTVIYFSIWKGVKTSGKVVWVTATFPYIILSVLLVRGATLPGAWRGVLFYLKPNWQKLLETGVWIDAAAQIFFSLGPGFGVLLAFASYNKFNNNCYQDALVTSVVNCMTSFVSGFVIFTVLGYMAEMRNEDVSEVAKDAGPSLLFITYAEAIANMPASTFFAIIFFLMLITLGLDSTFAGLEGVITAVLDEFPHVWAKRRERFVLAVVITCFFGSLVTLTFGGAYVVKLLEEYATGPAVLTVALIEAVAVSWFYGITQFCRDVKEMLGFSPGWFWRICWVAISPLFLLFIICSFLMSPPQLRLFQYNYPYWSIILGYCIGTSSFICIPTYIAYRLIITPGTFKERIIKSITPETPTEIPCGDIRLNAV
Text: as §1

piglet Purkinje fibre = details: for Concentration with statistically significant prolongation of APD90: pig
Procedure: Eliprodil and its two enantiomers induced concentration-dependent prolongation of the duration of the action potential of the piglet Purkinje fibre, particularly at the 0.25 Hz frequency. Based on action potential duration at 90% repolarization (APD90), statistically significant prolongation was evident at R(−) eliprodil concentrations of 100 nM and higher, but at S(+) eliprodil concentrations of 30 nM and higher. With high concentrations, APD90 decreased with both compounds.

[1] = following some doses in humans; cited from earlier work
[2] = cat, in vivo
Procedure: Eliprodil and its enantiomers were evaluated for their potential for prolonging QTc by determining their dose-related effects on cardiac electrical activity. Two different experimental models were utilized for these studies: (1) Action potential duration in piglet Purkinje fibers from the heart and (2) Electrocardiographic parameters in pentobarbital anesthetized cats.
Eliprodil and its two enantiomers were also evaluated for hemodynamic and electrocardiographic parameters in pentobarbital-anesthetized cats. […] Compounds were administered at increasing doses from 0.01 to 3 mg/kg as a five-minute intravenous infusion every 20 minutes.

[3] = system: voltage operated calcium channels of the L, N and P type; experiment: Antagonism at voltage operated calcium channels
Text: as §1

[4] = system: cultured rat retinal ganglion cells; experiment: Glutamate-induced rat retinal ganglion cell death; format: cell-based; details: 10 nM for 30 minutes, then 100 μM glutamate; viable cells counted after 3 days; FIG. 1
Text: Retinal ganglion cells were selected as they represent the retinal cell that degenerates in glaucoma. MK-801 was selected as a reference NMDA antagonist.
Isolation of rat retinal ganglion cells and assessment of viability in the absence and presence of glutamate was described in Pang, et al., “Protection by Eliprodil Against Excitotoxicity in Cultured Rat Retinal Ganglion Cells”, Investigative Ophthalmology & Visual Science, Vol. 40(6), pp. 1170-1176, May, 1999. Briefly, isolated cultured rat retinal ganglion cells were treated with racemic (R/S) eliprodil (10 nM), R-eliprodil (10 nM), or S-eliprodil (10 nM) for thirty (30) minutes followed by the addition of 100 μM glutamate. Survival was determined by counting viable cells after an incubation period of three (3) days. Survival with vehicle alone defines 100%. […] S-eliprodil was ineffective.

[5] = system: NMDA-induced firing rate of the lateral vestibular nucleus; experiment: NMDA-induced firing rate of the lateral vestibular nucleus in vivo
sodium channels = experiment: Antagonism at sodium channels
Text: as §1

NMDA receptor = NMDA receptor (Homo sapiens, UniProt Q05586+Q13224); experiment: biochemical
NMDA receptor, sequence (Q13224 27-1484, other chains not shown): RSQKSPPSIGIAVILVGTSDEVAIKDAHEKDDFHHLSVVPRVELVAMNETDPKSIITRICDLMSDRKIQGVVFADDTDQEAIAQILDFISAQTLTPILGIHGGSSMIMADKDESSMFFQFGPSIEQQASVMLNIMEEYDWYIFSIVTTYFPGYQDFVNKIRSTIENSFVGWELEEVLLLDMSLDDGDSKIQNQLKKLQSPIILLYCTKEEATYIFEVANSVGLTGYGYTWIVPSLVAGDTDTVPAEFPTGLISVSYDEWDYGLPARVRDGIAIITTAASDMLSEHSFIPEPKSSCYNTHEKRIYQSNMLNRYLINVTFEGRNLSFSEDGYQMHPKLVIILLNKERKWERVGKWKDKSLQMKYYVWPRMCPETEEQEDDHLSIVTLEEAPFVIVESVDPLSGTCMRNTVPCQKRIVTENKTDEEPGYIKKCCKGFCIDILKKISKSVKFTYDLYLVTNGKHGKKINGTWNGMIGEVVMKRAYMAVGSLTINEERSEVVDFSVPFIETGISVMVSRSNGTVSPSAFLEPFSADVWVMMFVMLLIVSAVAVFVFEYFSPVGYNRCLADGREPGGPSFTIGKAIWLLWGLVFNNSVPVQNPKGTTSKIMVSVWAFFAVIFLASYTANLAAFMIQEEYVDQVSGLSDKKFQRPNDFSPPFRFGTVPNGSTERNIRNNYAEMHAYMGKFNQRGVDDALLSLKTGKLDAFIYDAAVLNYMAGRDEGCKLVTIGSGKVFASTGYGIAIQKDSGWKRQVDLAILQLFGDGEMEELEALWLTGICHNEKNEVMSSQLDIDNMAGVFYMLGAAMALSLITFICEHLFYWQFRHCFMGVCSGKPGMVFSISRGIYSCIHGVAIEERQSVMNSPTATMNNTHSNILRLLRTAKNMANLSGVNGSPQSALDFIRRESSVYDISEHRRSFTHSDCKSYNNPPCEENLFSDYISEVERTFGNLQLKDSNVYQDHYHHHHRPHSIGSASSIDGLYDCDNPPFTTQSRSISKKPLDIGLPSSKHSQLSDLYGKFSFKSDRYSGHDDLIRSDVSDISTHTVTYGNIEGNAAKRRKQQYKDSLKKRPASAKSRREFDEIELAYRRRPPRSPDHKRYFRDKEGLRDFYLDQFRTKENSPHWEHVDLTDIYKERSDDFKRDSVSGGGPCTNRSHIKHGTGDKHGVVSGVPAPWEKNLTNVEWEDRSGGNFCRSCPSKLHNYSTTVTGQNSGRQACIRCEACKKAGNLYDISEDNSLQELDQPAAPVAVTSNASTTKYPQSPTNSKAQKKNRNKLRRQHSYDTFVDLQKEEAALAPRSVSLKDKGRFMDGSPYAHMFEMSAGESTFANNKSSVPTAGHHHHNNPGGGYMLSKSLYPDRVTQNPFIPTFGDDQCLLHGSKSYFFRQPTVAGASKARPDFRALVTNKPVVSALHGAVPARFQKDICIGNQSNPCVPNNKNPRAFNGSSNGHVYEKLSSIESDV

OC(CN1CCC(Cc2ccc(F)cc2)CC1)c1ccc(Cl)cc1 (racemic) [Eliprodil]
Recovery of excitatory post synaptic potentials following hypoxia (efficacy) (hippocampal slices): less effective
Affinity (histamine H1): sub-micromolar
Affinity (β3-adrenergic): sub-micromolar
Affinity (5-HT7): sub-micromolar
Affinity (5-HT2A): sub-micromolar
Affinity (α1-adrenergic): sub-micromolar
Affinity (histamine H2): sub-micromolar
Affinity (5-HT1A): sub-micromolar
Affinity (5-HT uptake): sub-micromolar
Effect on APD90 at low concentrations (piglet Purkinje fibre): intermediate between the two enantiomers
Maximum effect on APD90 (piglet Purkinje fibre): equal to that of S(+) eliprodil
QTc prolongation [1]: asymptomatic QTc prolongation
Threshold Dose, Heart Rate Decrease [2]: 0.1 mg/kg
Threshold Dose, Mean Blood Pressure Decrease [2]: 1.0 mg/kg
Threshold Dose, QTc Prolongation [2]: 0.03 mg/kg
Antagonism at voltage operated calcium channels [3]: shows antagonism
Neuroprotective effect on glutamate-induced retinal ganglion cell death (survival) [4]: marked neuroprotective activity
Inhibition of NMDA-induced firing rate of the lateral vestibular nucleus [5]: strongly inhibit
Antagonism at sodium channels (sodium channels): shows antagonism

O[C@@H](CN1CCC(Cc2ccc(F)cc2)CC1)c1ccc(Cl)cc1 [R-eliprodil, R-α-(4-chlorophenyl)-4-(4-fluorophenylmethyl)-1-peperidineethanol]
Recovery of excitatory post synaptic potentials following hypoxia (efficacy) (hippocampal slices): substantial recovery; also recorded: more efficacious than either racemic or S-eliprodil
Potency (EC50) for recovery of synaptic transmission, compared with racemic-eliprodil or memantine (hippocampal slices; p<0.05, Student's t-test, FIG. 2): statistically significantly more potent
Maximum effect on APD90 (piglet Purkinje fibre): less than is that seen with S(+) eliprodil
Concentration with statistically significant prolongation of APD90 (piglet Purkinje fibre): ≥ 100 nM
Threshold Dose, Heart Rate Decrease [2]: 0.3 mg/kg
Threshold Dose, Mean Blood Pressure Decrease [2]: 1.0 mg/kg
Threshold Dose, QTc Prolongation [2]: 0.1 mg/kg
Plasma level ([2]; iv, 0.1 mg/kg): 34.9 ± 2.8 ng/mL
Neuroprotective effect on glutamate-induced retinal ganglion cell death (survival) [4]: marked neuroprotective activity; also recorded: as efficacious as a protectant as racemic eliprodil
Inhibition of NMDA-induced firing rate of the lateral vestibular nucleus [5]: strongly inhibit
Ki (NMDA receptor): 0.2 µM

O[C@H](CN1CCC(Cc2ccc(F)cc2)CC1)c1ccc(Cl)cc1 [S-eliprodil]
Recovery of excitatory post synaptic potentials following hypoxia (efficacy) (hippocampal slices): less effective
Concentration with statistically significant prolongation of APD90 (piglet Purkinje fibre): ≥ 30 nM
Threshold Dose, Heart Rate Decrease [2]: 0.1 mg/kg
Threshold Dose, Mean Blood Pressure Decrease [2]: 1.0 mg/kg
Threshold Dose, QTc Prolongation [2]: 0.01 mg/kg
Neuroprotective effect on glutamate-induced retinal ganglion cell death (survival) [4]: ineffective
Inhibition of NMDA-induced firing rate of the lateral vestibular nucleus [5]: almost inactive at the highest dose tested
Ki (NMDA receptor): 10 µM
